The test system of one assay is ICR mice. The experiment in a line: Acetic acid-induced writhing test. Particulars: oral gavage. In kind it is in vivo, mouse. The protocol: ICR mice weighing 18˜22 g were maintained in a controlled lighting environment (12 hours on/12 hours off) and fasted overnight prior analgesic testing. Mice were administered with a compound of this invention dissolved in 10:10:80 ethanol/Tween 80/saline or vehicle only by oral gavage. The administered vehicle volume was controlled to be 10 ml/kg body weight. One hour later, the animals were treated with 0.2 ml of 1.2% acetic acid by peritoneal injection. 6 minutes later, the number of abdominal constrictions was counted for a 6 minutes period. The antinociceptive activity was expressed as the reduction in the number of abdominal constrictions, compared with that of the placebo group [J. Med. Chem. 39, 4942 (1996)]. ED50 of the mouse writhing test denotes a dose level at which the number of abdominal constrictions is half that of the placebo group. Ten animals per group were used for this study.
A general note: An intraperitoneal irritant provokes the stretching counted in writhing tests.

The next assay relates to male SD rats. Nature of the assay: Carrageenan-induced thermal hyperalgesia assay. Particulars: 3 hours. In kind it is in vivo, rat. The protocol:
Male SD rats weighing 170˜220 g were fasted but with free access to water for at leat 16 hours prior to testing. The rats were administered with a compound of this invention suspended in 20 ml 0.5% methylcellulose/0.025% Tween-20, or with vehicle only. Then the rats were given […] of 1% carrageenan in saline or […] saline only into the plantar surface of the left hindpaw by injection. Three hours later, the nociceptive responses to thermal stimuli were assessed as follows: Rats, which were placed in a transparent plastic chamber with a glass floor, were allowed to acclimate to their environment for 10 minutes prior to the testing. The withdrawal latency period in seconds was determined for the control and the compound treated group, and a percent inhibition in the withdrawal latency was calculated to estimate the analgesic effect of the compound [Pain 32, 77 (1988)]. In this study 6 animals were used for each group.

For the compound `CC1(C)OC(c2ccc(S(N)(=O)=O)cc2)=C(c2cccc(F)c2)C1=O` [Example 129, 5-{4-(aminosulfonyl)phenyl}-2,2-dimethyl-4-(3-fluorophenyl)-3(2H)-furanone], the “ED50 (mouse writhing)” value with ICR mice was 12.3 mg/kg body weight. Further, the “% Inhibition at 1.0 mg/kg body weight (rat hyperalgesia)” value in the assay with male SD rats is 92%.

For the compound `CC1(C)OC(c2ccc(S(C)(=O)=O)cc2)=C(c2cccc(F)c2)C1=O` [Example 4, 2,2-Dimethyl-4-(3-fluorophenyl)-5-{4-(methylsulfonyl)phenyl}-3(2H)-furanone], the “ED50 (mouse writhing)” value with ICR mice is recorded as 8.3 mg/kg body weight. Moreover, in the assay with male SD rats, the “% Inhibition at 1.0 mg/kg body weight (rat hyperalgesia)” value is on record as 27%.

Usually % Inhibition stands for the share of the control response that was lost under treatment. Low readings indicate a weak effect, high ones a strong effect.

The record behind these values is US6492416B1, “4,5-diaryl-3(2H)-furanone derivatives as cyclooxygenase-2 inhibitors” (Pacific Corporation, priority 1999, dated 2002).
